Source: ChEMBL document CHEMBL1201862, “PubChem BioAssay data set” (2004)
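The compound was tested at five concentrations on cells cultured in 96-well plates, with a 48-hour exposure period. Abbreviation: GI50, concentration required for 50% inhibition of growth.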 Active and inactive are the calls of the source. Rule as the data show it: active = GI50 up to about 1.1 µM and inactive = higher.

Key:
Experiment in all cases: growth of human tumour cells (NCI), 48 h
A498 = system: A498
A549 = system: A549
CAKI-1 = system: CAKI-1
HCC 2998 = system: HCC 2998
MCF7 = system: MCF7
MDA-N = system: MDA-N
MOLT-4 = system: MOLT-4
NCI-H460 = system: NCI-H460
OVCAR-4 = system: OVCAR-4
RPMI-8226 = system: RPMI-8226
SF-268 = system: SF-268
SK-MEL-2 = system: SK-MEL-2
SK-OV-3 = system: SK-OV-3
TK-10 = system: TK-10
U-251 = system: U-251
UO-31 = system: UO-31

Measured: GI50

CCN(CC)C(=S)N/N=C(/c1ccccc1)c1ccccn1
active: A498 0.311 µM | A549 0.349 µM | CAKI-1 0.805 µM | MCF7 0.0867 µM | MDA-N 1.07 µM | MOLT-4 < 0.0507 µM | NCI-H460 0.0783 µM | OVCAR-4 0.504 µM | RPMI-8226 0.11 µM | SF-268 0.0256 µM | SK-MEL-2 0.711 µM | SK-OV-3 0.673 µM | TK-10 0.439 µM | U-251 0.0995 µM | UO-31 0.459 µM
inactive: HCC 2998 2.15 µM

ClC1=C(Cl)C2OC3C=CCC3OC2C(Cl)=C1Cl (stereo unspecified)
active: MCF7 0.429 µM
inactive: A498 > 100 µM | CAKI-1 > 100 µM | HCC 2998 29.4 µM | MDA-N 51.3 µM | MOLT-4 35.3 µM | NCI-H460 40 µM | OVCAR-4 > 100 µM | RPMI-8226 23 µM | SF-268 73.5 µM | SK-MEL-2 18.8 µM | SK-OV-3 > 100 µM | TK-10 > 100 µM | U-251 52.8 µM | UO-31 > 100 µM

Cc1nc2ccc(Cl)cc2c2c1CCS2
inactive: A498 22 µM | A549 67 µM | CAKI-1 55.2 µM | HCC 2998 77.4 µM | MCF7 33.3 µM | MDA-N > 100 µM | MOLT-4 19.5 µM | NCI-H460 52.2 µM | OVCAR-4 26.8 µM | RPMI-8226 16.3 µM | SF-268 56.5 µM | SK-MEL-2 57.9 µM | SK-OV-3 > 100 µM | TK-10 69.2 µM | U-251 > 100 µM | UO-31 4.09 µM

CCN(CC)Cc1cc(/N=N\c2c(O)ccc3c(/N=N\c4ccc(O)c(CN(CC)CC)c4)c(O)ccc23)ccc1O
inactive: A498 13.3 µM | A549 2.42 µM | CAKI-1 2.1 µM | HCC 2998 1.71 µM | MCF7 2.39 µM | MDA-N 4.8 µM | MOLT-4 1.13 µM | NCI-H460 1.91 µM | OVCAR-4 1.77 µM | RPMI-8226 1.68 µM | SF-268 4.56 µM | SK-MEL-2 12.6 µM | SK-OV-3 2.77 µM | TK-10 6.89 µM | U-251 3.48 µM | UO-31 2 µM

N#C/C=C(/NC(=O)Nc1ccccc1)N1CCCC1
inactive: A498 > 100 µM | A549 > 40.7 µM | CAKI-1 > 45.9 µM | HCC 2998 > 30.3 µM | MCF7 > 33.1 µM | MDA-N > 100 µM | MOLT-4 > 100 µM | NCI-H460 > 37.5 µM | OVCAR-4 34.6 µM | RPMI-8226 > 82 µM | SF-268 > 32.3 µM | SK-MEL-2 > 32.9 µM | SK-OV-3 > 100 µM | TK-10 > 36.2 µM | U-251 > 36.8 µM | UO-31 > 89.3 µM

O=C(CN1CCN(C(=O)OCc2ccccc2)CCN(CC(=O)N2CCCCC2)CCN(C(=O)OCc2ccccc2)CC1)N1CCCCC1
inactive: A498 16.7 µM | A549 20.8 µM | CAKI-1 5.04 µM | HCC 2998 11.2 µM | MCF7 17.1 µM | MDA-N 14.8 µM | MOLT-4 7.41 µM | NCI-H460 12.4 µM | OVCAR-4 4.8 µM | RPMI-8226 13.4 µM | SF-268 15.8 µM | SK-MEL-2 19.5 µM | SK-OV-3 27.7 µM | TK-10 11.5 µM | U-251 16.5 µM | UO-31 3.19 µM

C/C=C/[C@@H]1O[C@H](CC#C[Si](C)(C)C)[C@@]2(C=O)C(C)=CC[C@H](C(C)C)[C@@H]12
inactive: A498 29.6 µM | A549 23.1 µM | CAKI-1 1.94 µM | HCC 2998 18.2 µM | MCF7 22.5 µM | MDA-N 19.4 µM | MOLT-4 1.93 µM | NCI-H460 17.1 µM | OVCAR-4 19.3 µM | RPMI-8226 5.7 µM | SF-268 23.8 µM | SK-MEL-2 16.5 µM | SK-OV-3 80.4 µM | TK-10 15 µM | U-251 17.3 µM | UO-31 1.61 µM

COc1cccc2c(=O)c3c(O)c4cc(N(C)C)ccc4c(OC(C)=O)c3oc12
inactive: A498 21 µM | A549 26.1 µM | CAKI-1 5.24 µM | HCC 2998 15 µM | MCF7 14.5 µM | MDA-N 13.7 µM | MOLT-4 3.1 µM | NCI-H460 18.2 µM | OVCAR-4 13.5 µM | RPMI-8226 13.2 µM | SF-268 17 µM | SK-MEL-2 16.3 µM | SK-OV-3 32.4 µM | TK-10 15.3 µM | U-251 14 µM | UO-31 17.7 µM

O=C(O)CN(CC(=O)O)Cc1cc2c(cc1O)Oc1cc(O)c(CN(CC(=O)O)CC(=O)O)cc1C21OC(=O)c2ccccc21 [OFTASCEINE]
inactive: A498 > 100 µM | A549 > 100 µM | CAKI-1 > 100 µM | HCC 2998 > 100 µM | MCF7 > 100 µM | MDA-N > 100 µM | MOLT-4 > 100 µM | NCI-H460 > 10 µM | OVCAR-4 > 100 µM | RPMI-8226 > 100 µM | SF-268 > 100 µM | SK-MEL-2 > 100 µM | SK-OV-3 > 100 µM | TK-10 > 100 µM | U-251 > 100 µM | UO-31 > 100 µM

O=C1CSC(c2ccccc2O)N1c1ccc(-n2c(-c3ccccc3)nc3ccccc3c2=O)cc1 (stereo unspecified)
inactive: A498 29.7 µM | A549 38.4 µM | CAKI-1 29.2 µM | HCC 2998 28.5 µM | MCF7 28.1 µM | MDA-N 28.2 µM | MOLT-4 13.2 µM | NCI-H460 14.8 µM | OVCAR-4 30.4 µM | RPMI-8226 21.1 µM | SF-268 50.1 µM | SK-MEL-2 24.3 µM | SK-OV-3 23.7 µM | TK-10 48.2 µM | U-251 5.7 µM | UO-31 18.9 µM

Nc1ccc2c(c1)Nc1c3ccccc3nc3cccc-2c13
active: MCF7 0.794 µM | MOLT-4 0.391 µM | NCI-H460 1.02 µM
inactive: A498 1.79 µM | A549 1.36 µM | CAKI-1 1.54 µM | HCC 2998 1.2 µM | MDA-N 1.42 µM | OVCAR-4 1.72 µM | RPMI-8226 1.84 µM | SF-268 1.73 µM | SK-MEL-2 1.73 µM | SK-OV-3 1.61 µM | TK-10 2.13 µM | U-251 1.53 µM | UO-31 1.72 µM

COC1(OC)C=CC(=O)C=C1
inactive: A498 32.6 µM | A549 5.85 µM | CAKI-1 3.61 µM | HCC 2998 3.68 µM | MCF7 1.3 µM | MDA-N 7.41 µM | MOLT-4 2.33 µM | NCI-H460 6.61 µM | OVCAR-4 3.05 µM | RPMI-8226 2.74 µM | SF-268 4.09 µM | SK-MEL-2 6.81 µM | SK-OV-3 13 µM | TK-10 2.69 µM | U-251 1.78 µM | UO-31 1.89 µM
